Values of other authors as cited in patent US6548469B2, “Cleaning compositions” (Merck Patent GmbH, priority 1996, dated 2003).

Conditions: use in cosmetics formulations on humans

Structure (SMILES): CCCCN(CCC(=O)OCC)C(C)=O [ethyl 3-(N-butylacetamino)propionate]
- skin and mucosa tolerance: outstanding
- toxic, allergizing or sensitizing properties: without toxic, allergizing or sensitizing properties
